One data set deals with Haemophilus influenzae. Put plainly: Antibacterial activity against acrB-deficient Haemophilus influenzae. In kind it is functional.
Data set [1] in a line: Inhibition of Escherichia coli TrmD.
For data set [2], the system named is Escherichia coli. Put plainly: Antibacterial activity against tolC-deficient Escherichia coli. In kind it is functional. The conditions noted are these: for MIC: Escherichia coli.
The nature of data set [3]: Lipophilicity, log D of the compound. As to conditions: octanol/water.
Data set [4] can be described thus: Inhibition of Haemophilus influenzae TrmD.
For data set [5], the system named is Escherichia coli. Put plainly: Antibacterial activity against wild-type Escherichia coli. The conditions noted are these: for MIC: Escherichia coli. In kind it is functional.
The test system of data set [6] is Escherichia coli. Put plainly: Antibacterial activity against tolC-deficient Escherichia coli in presence of 2% HSA. As to conditions: for MIC: Escherichia coli. In kind it is functional.
In data set [7] the test system is Pseudomonas aeruginosa. As to the kind of experiment: Ratio of MIC for wild-type Pseudomonas aeruginosa to MIC for MeXABCDXY-deficient Pseudomonas aeruginosa. In kind it is functional.
For data set [8], the system named is Pseudomonas aeruginosa. Put plainly: Antibacterial activity against MeXABCDXY-deficient Pseudomonas aeruginosa. In kind it is functional. The conditions noted are these: for MIC: Pseudomonas aeruginosa.
The test system of data set [9] is Escherichia coli. Put plainly: Ratio of MIC for wild-type Escherichia coli to MIC for tolC-deficient Escherichia coli. In kind it is functional.
The subject of data set [10] is Pseudomonas aeruginosa. Put plainly: Antibacterial activity against wild-type Pseudomonas aeruginosa. The conditions noted are these: for MIC: Pseudomonas aeruginosa. In kind it is functional.
Data set [11] is described as follows: Inhibition of Pseudomonas aeruginosa MurC.
For data set [12], the system named is Escherichia coli. As to the kind of experiment: Ratio of MIC for […] tolC-deficient Escherichia coli in presence of 2% HSA to MIC for tolC-deficient Escherichia coli in presence of 2% HSA. In kind it is functional.
The subject of data set [13] is Staphylococcus aureus. As to the kind of experiment: Antibacterial activity against wild-type Staphylococcus aureus in presence of 2% HSA. In kind it is functional.
Data set [14] relates to Staphylococcus aureus. Put plainly: Antibacterial activity against wild-type Staphylococcus aureus. In kind it is functional.
Data set [15] deals with Staphylococcus aureus. Put plainly: Ratio of MIC for wild-type Staphylococcus aureus in presence of 2% HSA to MIC for wild-type Staphylococcus aureus. In kind it is functional.
Data set [16] can be described thus: Inhibition of Escherichia coli GlmU.
Data set [17] is described as follows: Inhibition of Haemophilus influenzae GlmU.

Structures are written as SMILES. In brackets after ≈: the same amount, converted by molar mass.

On to `O=C(NCc1ccc(CN2CC[C@H](O)C2)cc1)c1csc2nc[nH]c(=O)c12`, for which the MIC against Haemophilus influenzae and with Escherichia coli [2] was over 64 µg/mL throughout. In addition, the results for the IC50 in [1] and in [4] were 290 nM and 420 nM, respectively. Also, in data set [3], the logD came out at 0.37.
In the case of `CC(C)(C)c1nc(-c2ccc3c(c2)OCCO3)c(-c2ccncc2)[nH]1`, the figures for the Activity with Escherichia coli [5], in the data set with Escherichia coli [2] and with Escherichia coli [6] were 32 µg/mL, 0.25 µg/mL and 4 µg/mL, respectively. In addition, in data set [3], the logD is 3.22.
Take `NC[C@H]1OB(O)c2ccccc21`: the Ratio in the data set with Pseudomonas aeruginosa [7] and in the data set with Escherichia coli [9] was 1 throughout. Besides, the MIC was 6.25 µM in the data set on Pseudomonas aeruginosa [8], 12.5 µM against Escherichia coli [5], 12.5 µM with Escherichia coli [2] and 6.25 µM in the data set with Pseudomonas aeruginosa [10].
Regarding `CC1COc2c(N3CCN(C)CC3)c(F)cc3c(=O)c(C(=O)O)cn1c23` (stereo not drawn) [OFLOXACIN], the Ratio in the data set on Pseudomonas aeruginosa [7] worked out at 62; in the data set with Escherichia coli [9] it was 3. Further, the MIC is under 0.08 µM in the data set on Pseudomonas aeruginosa [8], 0.24 µM against Escherichia coli [5], 0.08 µM against Escherichia coli [2] and 5.2 µM with Pseudomonas aeruginosa [10].
In the case of `CO[C@H]1CN(c2nc(-c3cnc(N4CCN[C@H](C)C4)cn3)c(C(=O)O)s2)CC[C@H]1NC(=O)c1[nH]c(C)c(Cl)c1Cl`, the Ratio in the data set on Pseudomonas aeruginosa [7] is on record as 8; in the data set on Escherichia coli [9] it was 64. Further, the MIC with Pseudomonas aeruginosa [8] was 3.13 µM; against Escherichia coli [5], over 25 µM; against Escherichia coli [2], 0.39 µM; in the data set with Pseudomonas aeruginosa [10], 25 µM.
Regarding `OCC1CCCCN1c1nc(Nc2cc(C3CC3)[nH]n2)c2cn[nH]c2n1` (stereo not drawn), the values for the IC50 in data set [11] and in data set [1] were 1000 nM and 1200 nM, respectively. Moreover, the MIC against Pseudomonas aeruginosa [8], in the data set with Escherichia coli [5], in the data set with Escherichia coli [2] and against Pseudomonas aeruginosa [10] was over 64 µg/mL in each case. In addition, the logD in [3] came to 2.85.
For the molecule `CC[C@]1(C)C[C@@H](OC(=O)CSc2nnc(N)[nH]2)[C@]2(C)[C@H](C)CC[C@]3(CCC(=O)[C@H]32)[C@@H](C)[C@@H]1O` [AZAMULIN], the MIC was over 64 µg/mL against Escherichia coli [5]; 4 µg/mL against Escherichia coli [2]; 2 µg/mL with Staphylococcus aureus [13]; 2 µg/mL (≈ 4.18 µM) in the data set with Staphylococcus aureus [14]; 8 µg/mL in the data set with Escherichia coli [6]. Further, the Ratio was found to be 2 in the data set on Escherichia coli [12] and 1 with Staphylococcus aureus [15].
For the molecule `N=C(N)SCc1ccc(Cl)cc1`, the Ratio in the data set with Pseudomonas aeruginosa [7] stood at 2. The MIC was 6.25 µM with Pseudomonas aeruginosa [8], over 50 µM with Escherichia coli [5] and 12.5 µM against Pseudomonas aeruginosa [10].
As for `Cc1cc(O)c(C(=O)N[C@@H](C(=O)N[C@@H]2C(=O)N3C(C(=O)O)=C(CSc4nnnn4C)CS[C@H]23)c2ccc(O)cc2)cn1` [CEFPIRAMIDE], the MIC is 16 µg/mL with Escherichia coli [5]; 0.5 µg/mL against Escherichia coli [2]; over 64 µg/mL in the data set with Staphylococcus aureus [13]; 32 µg/mL (≈ 52.2 µM) against Staphylococcus aureus [14]; 6.4 µg/mL in the data set with Escherichia coli [6]. The Ratio in the data set on Escherichia coli [12] is 128.
On to `N=C(N)SCc1ccc(Cl)c(Cl)c1`, for which the Activity with Pseudomonas aeruginosa [8] is 1 µg/mL; with Escherichia coli [5], over 32 µg/mL; with Escherichia coli [2] it was over 32 µg/mL; in the data set with Pseudomonas aeruginosa [10] it was 4 µg/mL. The same molecule yielded a logD in data set [3] of 1.4.
On to `Fc1ccc(COc2cccc(-c3n[nH]cc3-c3ccncc3)c2)cc1`, for which the Activity with Escherichia coli [5] was 8 µg/mL; in the data set on Escherichia coli [2] it was under 0.063 µg/mL; in the data set with Escherichia coli [6] it was 16 µg/mL. In addition, the logD in data set [3] came to 4.3.
For `CC(C)(O/N=C(\C(=O)N[C@@H]1C(=O)N2C(C(=O)[O-])=C(C[n+]3ccccc3)CS[C@H]12)c1csc(N)n1)C(=O)O` [CEFTAZIDIME], the Ratio in the data set with Escherichia coli [9] amounted to 1.6. In addition, the MIC was found to be 0.8 µM in the data set on Escherichia coli [5] and 0.5 µM with Escherichia coli [2].
On to `CCCCCC1=C/C(=C/c2[nH]c(-c3ccc[nH]3)cc2OC)N=C1C` [PRODIGIOSIN], for which the MIC in the data set on Escherichia coli [5] is 2 µg/mL; with Escherichia coli [2] it was 1 µg/mL; in the data set with Staphylococcus aureus [13], 16 µg/mL; against Staphylococcus aureus [14], 2 µg/mL (≈ 6.18 µM); in the data set on Escherichia coli [6], over 32 µg/mL. For the same molecule, the Ratio amounted to 2 with Escherichia coli [12] and 8 with Staphylococcus aureus [15].
As for `COc1cc(OC)c(S(=O)(=O)N2c3ccccc3CC2C)cc1NC(C)=O` (stereo not drawn), the MIC in the data set on Haemophilus influenzae and against Escherichia coli [2] was over 64 µg/mL in each case. Besides, the IC50 in data set [16] was determined as 2100 nM; in data set [17] it was 7800 nM.
Take `COc1cc(OC)c(S(=O)(=O)N2c3ccccc3Oc3ccccc32)cc1NC(=O)CCC(=O)O`: the MIC in the data set with Haemophilus influenzae was 32 µg/mL (≈ 64.2 µM); with Escherichia coli [2], over 64 µg/mL. Further, the IC50 is 7 nM in data set [16] and 23 nM in data set [17].
For the molecule `CC(C)(O)[C@H](NC(=O)c1ccc(C#CC#CC2CC2)cc1)C(=O)NO`, the Activity in the data set on Pseudomonas aeruginosa [8] was under 0.06 µg/mL; in the data set on Escherichia coli [5] it was under 0.063 µg/mL; in the data set with Escherichia coli [2], under 0.063 µg/mL; in the data set on Escherichia coli [6], under 0.063 µg/mL; in the data set on Pseudomonas aeruginosa [10], 0.25 µg/mL. Moreover, in [3], the logD came to 2.3.
For `Cn1nc(Nc2nc(N[C@H](CO)c3ccccc3)nc3[nH]ncc23)cc1C(C)(C)C`, the values for the IC50 in [11] and in [1] were 1 nM and under 0.5 nM, respectively. Moreover, the MIC in the data set with Pseudomonas aeruginosa [8] is 1.5 µg/mL; against Escherichia coli [5], over 64 µg/mL; in the data set with Escherichia coli [2] it was 2 µg/mL; with Pseudomonas aeruginosa [10] it was over 64 µg/mL. This molecule returned a logD in data set [3] of 3.33.
As for `C[C@@H](O)[C@H]1C(=O)N2C(C(=O)O)=C([C@H]3CCCO3)S[C@H]12` [FAROPENEM], the MIC against Escherichia coli [5] was 3.13 µM; with Escherichia coli [2] it was 6.25 µM; in the data set on Pseudomonas aeruginosa [10] it was under 100 µM.
Consider `Oc1ncnc2scc(-c3ccccc3)c12`, for which the MIC against Haemophilus influenzae and against Escherichia coli [2] was over 64 µg/mL throughout. The figures for the IC50 in [1] and in data set [4] were 17000 nM and under 5000 nM, respectively.

Usually IC50 stands for the concentration needed to halve the response being measured. Higher therefore signals weaker potency in that assay. A word on the logD: it is the decadic logarithm of the distribution of all forms, ionised or not, between an organic phase and buffer at a given pH. Low readings indicate a more hydrophilic compound, high ones a more lipophilic compound.

The record behind these values is ChEMBL document CHEMBL3352383, “Trends and exceptions of physical properties on antibacterial activity for Gram-positive and Gram-negative pathogens” (J Med Chem, 2014).
